Results on three compounds are retold here after patent publication US20120142690A1, “Substituted piperidines” (BAYER PHARMA AKTIENGESELLSCHAFT, priority 2009, published 2012).

Molecules are shown by their SMILES.

The experiment concerns the target T1, human protease activated receptor 1 (PAR-1) (Homo sapiens, UniProt P25116).
T1 construct: the cell stably expresses the endogenous human PAR-1 receptor; endogenous in cells; host or cells: HEK293-derived recombinant cell line that constitutively expresses mitochondrial aequorin
T1 sequence (P25116 22-425): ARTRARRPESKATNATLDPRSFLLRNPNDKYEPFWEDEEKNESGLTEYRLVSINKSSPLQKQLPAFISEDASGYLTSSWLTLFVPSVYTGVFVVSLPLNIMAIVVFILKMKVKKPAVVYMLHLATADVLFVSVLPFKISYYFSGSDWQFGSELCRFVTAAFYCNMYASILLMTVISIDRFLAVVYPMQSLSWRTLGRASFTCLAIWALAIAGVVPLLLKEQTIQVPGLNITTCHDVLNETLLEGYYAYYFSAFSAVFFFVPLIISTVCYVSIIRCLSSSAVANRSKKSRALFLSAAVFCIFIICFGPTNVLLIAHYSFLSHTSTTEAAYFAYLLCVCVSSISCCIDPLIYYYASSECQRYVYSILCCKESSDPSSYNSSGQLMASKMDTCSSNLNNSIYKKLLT
Kind of experiment: Cellular functional in vitro test (aequorin luminescence, PAR-1 test cell). The format is cell-based. The conditions noted are these: recombinant HEK293-derived cell line expressing aequorin; PAR-1 agonist at EC50; calcium-dependent luminescence. The text has this: 1.a) Cellular Functional In Vitro Test
A recombinant cell line is used to identify antagonists of the human protease activated receptor 1 (PAR-1) and to quantify the activity of the substances described herein. The cell is originally derived from a human embryonal kidney cell (HEK293; ATCC: American Type Culture Collection, Manassas, Va. 20108, USA). The test cell line constitutively expresses a modified form of the calcium-sensitive photoprotein acquorin which, after reconstitution with the cofactor coelenterazine, emits light when the free calcium concentration in the inner mitochondrial compartment is increased (Rizzuto R, Simpson A W, Brini M, Pozzan T.; Nature 1992, 358, 325-327). Additionally, the cell stably expresses the endogenous human PAR-1 receptor and the endogenous purinergic receptor P2Y2. The resulting PAR-1 test cell responds to stimulation of the endogenous PAR-1 or P2Y2 receptor with an intracellular release of calcium ions, which can be quantified through the resulting acquorin luminescence with a suitable luminometer (Milligan G, Marshall F, Rees S, Trends in Pharmacological Sciences 1996, 17, 235-237). […]
Test procedure: The cells are plated out two days (48 h) before the test in culture medium (DMEM F12, supplemented with 10% FCS, 2 mM glutamine, 20 mM HEPES, 1.4 mM pyruvate, 0.1 mg/ml gentamycin, 0.15% Na bicarbonate; BioWhittaker Cat.#BE04-687Q; B-4800 Verviers, Belgium) in 384-well microtitre plates and kept in a cell incubator (96% atmospheric humidity, 5% v/v CO2, 37° C.). […] The test substances are then pipetted onto the microtitre plate, and 5 minutes after the transfer of the test substances into the wells of the microtitre plate the plate is transferred into the luminometer, a PAR-1 agonist concentration which corresponds to EC50 is added and the resulting light signal is immediately measured in the luminometer. To distinguish an antagonist substance action from a toxic action, the endogenous purinergic receptor is immediately subsequently activated with agonist (ATP, final concentration 10 μM) and the resulting light signal is measured.
In the case of `COc1ccccc1-c1ccc(/C=C/C2CC(c3ccc(C(F)(F)F)cc3)CN(C(=O)N3CCOCC3)C2)nc1` (racemic) [Example 7, (3-{(E)-2-[5-(2-Methoxyphenyl)pyridin-2-yl]vinyl}-5-[4-(trifluoromethyl)phenyl]piperidin-1-yl)-(morpholin-4-yl)methanone], the IC50 came out at 1.9 nM. Consider `O=C(N1CCOCC1)N1CC(/C=C/c2ccc(-c3cccc(Cl)c3)cn2)CC(c2ccc(C(F)(F)F)cc2)C1` (racemic) [Example 9, (3-{(E)-2-[5-(3-Chlorophenyl)pyridin-2-yl]vinyl}-5-[4-(trifluoromethyl)phenyl]piperidin-1-yl)-(morpholin-4-yl)methanone], for which the IC50 turned out to be 2.2 nM. In the case of `O=C(N1CCOCC1)N1CC(/C=C/c2ccc(-c3cccc(C(F)(F)F)c3)cn2)CC(c2ccc(C(F)(F)F)cc2)C1` (single isomer, unassigned) [Example 5, Morpholin-4-yl{3-[4-(trifluoromethyl)phenyl]-5-[(E)-2-{5-[3-(trifluoromethyl)phenyl]pyridin-2-yl}vinyl]piperidin-1-yl}methanone], the IC50 amounted to 2 nM.

A word on the IC50: it is the midpoint of a concentration-inhibition curve.
